Tests used:
hemolysis model mice [1] = settings: cilastatin 400 mg/kg i.p. at 0, 3 and 6 h after phenylhydrazine, kidneys at 24 h, immunostaining (FIG. 5)
Experimental: Twenty-four hours after phenylhydrazine dosing, a portion containing a renal pedicle was sliced to 3 mm thickness from the right kidney and fixed with 4% paraformaldehyde phosphate buffer.
(§1) In line with Test Example 1, 1 mg/10 g of phenylhydrazine was given to C57BL/6 (male, aged 10-12 weeks), thereby constructing hemolysis model mice.
(§2) To the hemolysis models, a) 400 mg/kg (diluted in 100 μL, of normal saline) of cilastatin (Sigma-Aldrich Inc.), or b) 100 μL, of normal saline was intraperitoneally administered at the time of phenylhydrazine dosing, 3 hours after the dosing, and 6 hours after the dosing.

mice (C57BL/6) = settings: cilastatin sodium 400 mg/kg i.p.
Experimental: Cilastatin was administered to mice and changes in concentrations of each ligand in urine were observed.
Five mice (male, aged 12 weeks C57BL/6) were intraperitoneally administered with 400 mg/kg (diluted in 100 μL, of normal saline, cilastatin-treated group) of cilastatin sodium (Sigma-Aldrich Japan K.K., C5743), and then put in a metabolic cage for 3 hours to collect urine, and the urines of 5 mice were combined. Additionally, 100 μL, of normal saline was administered to another group of 5 mice (control group), and the same experiment as above was conducted.
Proteins were isolated from the obtained urine samples by electrophoresis (SDS-polyacrylamide gel), reductively alkylated (using dithiothreitol and iodoacetamide), digested with trypsin, and the obtained peptides were extracted to obtain a solid.
To the obtained solid, 15 μL, of 0.3% formic acid (FA) was added, shaken for 5 minutes, sonicated for 1 minute, and shaken again for 5 minutes. The resultant mixture was spun down, applied to a membrane filter having a pore diameter of 0.45 μm (ULtra free-MC, HV, 0.45 μm, Millipore), centrifuged at 10,000 rpm for 5 minutes, and the sample passed through the filter was subjected to LCMS analysis.
The analysis method described in Ohara et al., 2018, PLoS One, vol. 13, 1, e0204160 was referred to. The analysis method is shown below.
AnaLyst® TF1.6 (AB SCIEX) was used as an LCMS/MS data acquisition and analysis software, and the obtained raw data were converted to a peak list file (mgf file format), whereby MS/MS Ion Search (MIS search) was conducted using Matrix Science Mascot daemon, Mascot server 2.2.1. The sequence data base used was Uniprot, Swiss-Prot. Significance threshold was set to 0.05 (false discovery rate of less than 5%), and the proteins having 2 or more peptides exceeding the identification standard were listed as identified proteins.
Raw data were acquired 2 times per sample at LCMS to cover the issue of analysis reproducibility at LCMS, and the peak list files obtained from the 2 runs were combined and analyzed using Mascot (Ohara et al., 2018, PLoS One, vol. 13, 1, e0204160).
To the proteins identified in common in 2 groups when compared, the spectral count method was used, which is a label-free comparative, semiquantitative analysis method utilizing a principle that a large number of peptide fragments will be identified in those expressed at high levels, resulting in the increase in the number of MS/MS. In other words, the proteins identified in both of the cilastatin-treated group and control group were calculated for an SpC/L ratio (spectral abundance factor: SAF) of the cilastatin-treated group/control group, and the proteins having an SpC/L ratio of 2.0 or more were listed as the proteins abundant in urine of the cilastatin-treated group.

[2] = biological target: binding between α1M and megalin (Rattus norvegicus, UniProt P98158); settings: QCM, 1 mg/200 μL cilastatin injected into buffer in advance, rat α1M (FIG. 2-2)
Source text: (§3) Binding specificity between megalin and each ligand (hemoglobin, α1M, Hx), and the possible binding inhibition by cilastatin were verified using the quartz crystal microbalance (QCM) method by reference to the method described in PTL 2.

[3] = biological target: binding between megalin and Hx (Rattus norvegicus, UniProt P98158); settings: QCM, 1 mg cilastatin injected into 200 μL buffer in advance, rat Hx (FIG. 2-1)
Source text: as §3
(§4) For the ligands to be verified, hemoglobin (LifeSpan Biosciences Inc., Rat Hemoglobin Native Protein, LS-G11201) and Hx (Sino Biological Inc., Rat Hemopexin/HPX protein (His Tag 81025-R08H)) were used. […]
(§5) After each of the ligand- or BSA-immobilized quartz crystal sensor was mounted in the measurement instrument AFFINIX® Q8 (Initium Inc.) and the frequency was confirmed to be stable, 8 μL of a 0.1 mg/mL solution of megalin purified from Sprague-Dawley (SD) rat kidneys according to the method of Orlando et al. was injected and frequency was measured with time.
(§6) More specifically, the megalin solution was reacted to each of the ligand-immobilized quartz crystal sensors placed in a chamber with 200 μL of buffer, and frequency was measured.
(§7) Additionally, 1 mg of cilastatin was injected into buffer in advance, each of the ligand-immobilized quartz crystal sensors was mounted in the measurement instrument, and after the frequency was confirmed to be stable, the megalin solution was injected and frequency was measured with time, whereby the antagonistic activity of cilastatin against the binding of each ligand to megalin was analyzed. […]

[4] = biological target: binding between megalin and hemoglobin (Rattus norvegicus, UniProt P98158); settings: QCM, 1 mg cilastatin injected into 200 μL buffer in advance, rat hemoglobin (FIG. 2-1)
Source text: as §3, §4, §5, §6, §7

hemolysis model mice [5] = settings: cilastatin 400 mg/kg i.p. at 0, 3 and 6 h after phenylhydrazine, vs normal saline control group (FIG. 1)
Experimental: Phenylhydrazine (97% phenylhydrazine, Sigma-Aldrich Inc.) was dissolved in PBS in a concentration of 5 mg/ml to prepare a PBS solution, and the solution was intraperitoneally given to C57BL/6 mice (male, aged 10-12 weeks) so that the dose of phenylhydrazine was 1 mg/10 g, thereby constructing homolysis models.
To the hemolysis models, a) 400 mg/kg (diluted in 100 μL of normal saline) of cilastatin (Sigma-Aldrich Inc.), or b) 100 μL of normal saline was intraperitoneally administered at the time of phenylhydrazine dosing, 3 hours after the dosing, and 6 hours after the dosing. For each a) and b), 6 mice were used.
Then, for each individual in a) cilastatin-treated group and b) normal saline-treated group (control group), urine was pooled using a metabolic cage for 24 hours after phenylhydrazine dosing, and the obtained urine samples were collected.
The urine and serum were stored at −80° C. until analysis and measured for urinary KIM-1 and blood urea nitrogen. The measurements were conducted by Oriental Yeast Co., Ltd.

hemolysis model mice [6] = settings: cilastatin 400 mg/kg i.p. at 0, 3 and 6 h after phenylhydrazine, kidneys at 24 h, immunostaining (FIG. 7)
Experimental: as §1, §2
In the present test example, thinly sliced fixed samples obtained from the remaining right kidney of the same animal were immunostained (500-fold diluted) using an anti-α1M antibody (Gene Tex: GTX101068).

[7] = mice, 3 h urine pooled from 5 mice, LCMS

Chain of binding between α1M and megalin (P98158 26-4660): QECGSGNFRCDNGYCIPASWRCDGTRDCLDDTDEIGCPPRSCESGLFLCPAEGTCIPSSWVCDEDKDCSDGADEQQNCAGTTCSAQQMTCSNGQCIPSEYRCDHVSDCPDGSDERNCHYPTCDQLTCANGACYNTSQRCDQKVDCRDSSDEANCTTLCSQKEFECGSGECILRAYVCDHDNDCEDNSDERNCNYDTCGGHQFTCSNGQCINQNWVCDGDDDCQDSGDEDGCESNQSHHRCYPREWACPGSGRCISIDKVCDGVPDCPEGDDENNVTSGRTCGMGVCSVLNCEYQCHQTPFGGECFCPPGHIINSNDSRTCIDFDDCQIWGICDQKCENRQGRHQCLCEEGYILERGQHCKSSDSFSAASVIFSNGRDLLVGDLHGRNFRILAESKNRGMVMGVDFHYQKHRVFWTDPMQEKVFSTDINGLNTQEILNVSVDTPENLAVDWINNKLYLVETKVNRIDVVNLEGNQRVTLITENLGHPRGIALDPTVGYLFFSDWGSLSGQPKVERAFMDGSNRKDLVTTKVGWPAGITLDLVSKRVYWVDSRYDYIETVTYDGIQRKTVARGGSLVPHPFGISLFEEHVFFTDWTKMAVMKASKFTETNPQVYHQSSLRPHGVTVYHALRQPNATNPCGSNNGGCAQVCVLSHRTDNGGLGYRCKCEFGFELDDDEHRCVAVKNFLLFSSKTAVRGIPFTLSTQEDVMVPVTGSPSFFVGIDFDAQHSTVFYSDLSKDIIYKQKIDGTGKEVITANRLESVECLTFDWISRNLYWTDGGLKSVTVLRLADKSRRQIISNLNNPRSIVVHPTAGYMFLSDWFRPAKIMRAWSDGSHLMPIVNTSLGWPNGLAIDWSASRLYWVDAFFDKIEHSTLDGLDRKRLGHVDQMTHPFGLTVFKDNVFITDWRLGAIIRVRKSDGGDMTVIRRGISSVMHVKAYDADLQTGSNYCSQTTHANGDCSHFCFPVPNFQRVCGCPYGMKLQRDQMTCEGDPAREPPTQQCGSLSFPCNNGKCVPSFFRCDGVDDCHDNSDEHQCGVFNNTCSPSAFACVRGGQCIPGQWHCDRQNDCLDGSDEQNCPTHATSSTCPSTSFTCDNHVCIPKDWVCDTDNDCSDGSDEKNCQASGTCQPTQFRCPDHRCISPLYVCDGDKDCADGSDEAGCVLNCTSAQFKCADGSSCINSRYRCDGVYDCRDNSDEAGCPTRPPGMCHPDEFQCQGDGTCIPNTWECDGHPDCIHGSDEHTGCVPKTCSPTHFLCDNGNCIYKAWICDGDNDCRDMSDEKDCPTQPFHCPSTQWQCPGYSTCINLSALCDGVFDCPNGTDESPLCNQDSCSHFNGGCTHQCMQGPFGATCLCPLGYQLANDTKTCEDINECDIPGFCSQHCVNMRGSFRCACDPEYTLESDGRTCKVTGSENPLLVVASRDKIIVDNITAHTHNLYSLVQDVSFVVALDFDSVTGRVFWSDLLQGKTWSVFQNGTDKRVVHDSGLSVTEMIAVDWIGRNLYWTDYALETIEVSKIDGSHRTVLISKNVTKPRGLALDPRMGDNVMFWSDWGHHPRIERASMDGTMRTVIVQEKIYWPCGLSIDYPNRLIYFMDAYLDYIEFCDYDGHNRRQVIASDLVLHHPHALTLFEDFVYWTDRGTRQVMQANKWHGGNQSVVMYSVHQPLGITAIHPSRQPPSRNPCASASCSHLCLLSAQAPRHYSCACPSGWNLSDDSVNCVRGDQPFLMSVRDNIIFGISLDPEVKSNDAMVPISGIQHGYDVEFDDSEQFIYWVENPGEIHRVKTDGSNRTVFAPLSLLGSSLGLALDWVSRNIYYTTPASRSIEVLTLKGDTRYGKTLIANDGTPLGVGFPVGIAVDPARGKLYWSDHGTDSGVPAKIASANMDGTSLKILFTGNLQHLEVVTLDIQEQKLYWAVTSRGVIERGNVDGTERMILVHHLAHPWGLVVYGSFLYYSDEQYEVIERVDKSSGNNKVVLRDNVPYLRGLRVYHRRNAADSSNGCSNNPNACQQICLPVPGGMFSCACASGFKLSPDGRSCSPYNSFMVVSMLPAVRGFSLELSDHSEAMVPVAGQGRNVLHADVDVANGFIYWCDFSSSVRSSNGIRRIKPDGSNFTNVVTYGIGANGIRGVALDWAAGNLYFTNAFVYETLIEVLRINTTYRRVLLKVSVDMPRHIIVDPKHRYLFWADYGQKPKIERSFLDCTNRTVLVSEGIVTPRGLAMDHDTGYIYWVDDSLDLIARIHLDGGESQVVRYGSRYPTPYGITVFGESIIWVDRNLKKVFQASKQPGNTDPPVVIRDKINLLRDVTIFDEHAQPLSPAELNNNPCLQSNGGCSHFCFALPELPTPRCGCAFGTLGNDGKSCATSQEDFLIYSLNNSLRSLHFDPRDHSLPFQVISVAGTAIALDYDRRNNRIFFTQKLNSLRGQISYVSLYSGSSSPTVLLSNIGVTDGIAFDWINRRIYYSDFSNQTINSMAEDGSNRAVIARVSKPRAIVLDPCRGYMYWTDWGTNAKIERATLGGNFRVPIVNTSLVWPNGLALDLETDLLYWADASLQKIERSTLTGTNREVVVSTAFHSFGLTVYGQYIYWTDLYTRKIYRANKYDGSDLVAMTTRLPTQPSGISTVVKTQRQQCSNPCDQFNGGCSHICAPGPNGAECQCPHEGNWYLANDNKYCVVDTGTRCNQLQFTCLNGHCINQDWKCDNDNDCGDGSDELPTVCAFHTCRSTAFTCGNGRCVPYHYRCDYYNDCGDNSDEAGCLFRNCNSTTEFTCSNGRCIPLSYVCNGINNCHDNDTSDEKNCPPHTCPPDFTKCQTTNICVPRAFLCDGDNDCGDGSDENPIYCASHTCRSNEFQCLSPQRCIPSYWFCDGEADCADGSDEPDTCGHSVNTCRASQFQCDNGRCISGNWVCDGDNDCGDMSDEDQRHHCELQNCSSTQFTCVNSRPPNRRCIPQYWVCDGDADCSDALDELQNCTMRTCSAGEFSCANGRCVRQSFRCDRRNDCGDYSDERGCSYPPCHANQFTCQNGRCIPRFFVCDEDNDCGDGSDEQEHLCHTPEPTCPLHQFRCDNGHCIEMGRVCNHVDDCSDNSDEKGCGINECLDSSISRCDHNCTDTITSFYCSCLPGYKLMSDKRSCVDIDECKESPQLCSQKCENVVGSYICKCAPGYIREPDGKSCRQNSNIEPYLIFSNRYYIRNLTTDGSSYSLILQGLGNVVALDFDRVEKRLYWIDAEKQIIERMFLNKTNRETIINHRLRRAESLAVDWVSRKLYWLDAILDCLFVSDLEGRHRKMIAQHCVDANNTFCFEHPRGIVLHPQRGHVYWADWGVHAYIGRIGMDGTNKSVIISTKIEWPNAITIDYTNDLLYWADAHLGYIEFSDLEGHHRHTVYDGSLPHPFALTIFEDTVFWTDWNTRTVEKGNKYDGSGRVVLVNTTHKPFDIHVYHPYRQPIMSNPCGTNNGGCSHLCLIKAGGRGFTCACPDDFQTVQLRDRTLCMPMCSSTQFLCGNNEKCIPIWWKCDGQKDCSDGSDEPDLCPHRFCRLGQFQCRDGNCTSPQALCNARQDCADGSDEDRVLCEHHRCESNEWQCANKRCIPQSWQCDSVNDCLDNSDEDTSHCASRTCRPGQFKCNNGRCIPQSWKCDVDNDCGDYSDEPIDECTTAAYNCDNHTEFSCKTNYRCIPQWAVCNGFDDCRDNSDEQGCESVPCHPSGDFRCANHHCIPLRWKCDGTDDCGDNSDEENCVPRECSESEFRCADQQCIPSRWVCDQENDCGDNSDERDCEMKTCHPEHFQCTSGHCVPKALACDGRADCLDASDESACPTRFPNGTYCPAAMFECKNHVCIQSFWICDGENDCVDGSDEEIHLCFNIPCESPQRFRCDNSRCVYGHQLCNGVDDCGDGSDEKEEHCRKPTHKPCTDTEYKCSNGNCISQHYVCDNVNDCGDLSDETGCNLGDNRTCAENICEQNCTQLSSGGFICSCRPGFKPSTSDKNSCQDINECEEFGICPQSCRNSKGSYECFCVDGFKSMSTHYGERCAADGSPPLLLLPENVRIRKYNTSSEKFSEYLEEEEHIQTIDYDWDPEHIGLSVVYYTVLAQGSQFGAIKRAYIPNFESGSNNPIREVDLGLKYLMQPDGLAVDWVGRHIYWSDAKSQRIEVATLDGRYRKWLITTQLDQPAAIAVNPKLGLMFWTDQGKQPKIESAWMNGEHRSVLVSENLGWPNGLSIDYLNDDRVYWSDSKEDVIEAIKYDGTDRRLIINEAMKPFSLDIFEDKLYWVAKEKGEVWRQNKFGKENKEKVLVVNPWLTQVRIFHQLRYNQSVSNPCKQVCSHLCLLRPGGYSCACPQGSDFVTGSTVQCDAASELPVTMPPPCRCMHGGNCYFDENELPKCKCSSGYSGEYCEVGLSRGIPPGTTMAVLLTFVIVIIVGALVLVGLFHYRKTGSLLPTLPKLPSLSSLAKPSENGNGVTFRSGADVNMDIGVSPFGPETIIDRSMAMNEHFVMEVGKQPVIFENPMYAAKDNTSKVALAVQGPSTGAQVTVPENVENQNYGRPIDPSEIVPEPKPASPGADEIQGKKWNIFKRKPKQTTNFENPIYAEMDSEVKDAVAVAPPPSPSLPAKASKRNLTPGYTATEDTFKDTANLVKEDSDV
Chain of binding between megalin and Hx (P98158 26-4660): as above
Chain of binding between megalin and hemoglobin (P98158 26-4660): as above

CC1(C)C[C@@H]1C(=O)N/C(=C\CCCCSC[C@H](N)C(=O)O)C(=O)O [cilastatin, (Z)-7-[[(R)-2-Amino-2-carboxyethyl]thio]-2-[[[(S)-2,2-dimethylcyclopropyl]carbonyl]amino]-2-heptenoic acid]
amounts of hemoglobin taken up into kidney tissues (hemolysis model mice [1]): reduced | uptake of α1M and Hx into kidney tissues (mice (C57BL/6); concluded from higher urinary concentrations in the cilastatin-treated group): inhibits | SpC/L ratio (cilastatin-treated group/control group), urinary Albumin (mice (C57BL/6); [7]): 1.10 | SpC/L ratio (cilastatin-treated group/control group), urinary Clusterin (mice (C57BL/6); [7]): 0.73 | SpC/L ratio (cilastatin-treated group/control group), urinary Hx (mice (C57BL/6); [7]): 2.33 | SpC/L ratio (cilastatin-treated group/control group), urinary Transcobalamin-2 (mice (C57BL/6); [7]): 2.33 | SpC/L ratio (cilastatin-treated group/control group), urinary Transthyretin (mice (C57BL/6); [7]): 1.00 | SpC/L ratio (cilastatin-treated group/control group), urinary Vitamin D-binding protein (mice (C57BL/6); [7]): 0.80 | SpC/L ratio (cilastatin-treated group/control group), urinary α1M (mice (C57BL/6); [7]): 3.67 | binding of α1M to megalin-immobilized quartz crystal sensor (drop of quartz crystal signals) [2]: inhibited | binding of megalin to Hx-immobilized quartz crystal sensor (drop of quartz crystal signals) [3]: inhibited | binding of megalin to hemoglobin-immobilized quartz crystal sensor (drop of quartz crystal signals) [4]: inhibited | urinary KIM-1 (hemolysis model mice [5]; 24 h pooled urine): lower in the cilastatin (CS)-treated group than the control group | blood urea nitrogen (hemolysis model mice [5]; serum at 24 h): lower in the cilastatin (CS)-treated group than the control group | amounts of α1M taken up into kidney tissues (hemolysis model mice [6]): reduced

From patent US12239621B2, “Prevention of kidney injury induced by hemolytic reaction” (Niigata University, priority 2021, dated 2025)
